According to PMC9945734 (BMC Medicine, 2023):
Values joined by “and” are separate entries in the source; they are usually repeats but may differ in a detail not shown here. Identical values can stand only once.

Test system: PC-3-KQ and PC-3-KR cells
Test: RNA-sequencing and differential gene expression
Format: cell-based, human
Parameters: CEP19 tpm_KQ_NTZ / CCNA1 tpm_KQ_NTZ / BTN3A3 tpm_KQ_NTZ / CAPSL tpm_KQ_NTZ / CELF3 tpm_KQ_NTZ / C5orf63 tpm_KQ_NTZ / tpm MSMP / tpm MYH7B / tpm CACNG8 / CNTNAP3B tpm_KQ_NTZ / IL21R tpm_KQ_NTZ / CYP8B1 tpm_KQ_NTZ / C2orf78 tpm_KQ_NTZ / CALB1 tpm_KQ_NTZ / COL4A3 tpm_KQ_NTZ / CFB tpm_KQ_NTZ / PFKFB1 tpm_KQ_NTZ / BTBD11 tpm_KQ_NTZ: scale not given here
Details: RNA-Seq
[1] = PC-3-KQ cells with NTZ, replicates NTZ1-3, listed as NTZ

## CC(=O)Oc1ccccc1C(=O)Nc1ncc([N+](=O)[O-])s1 [Nitazoxanide]
[1]
  tpm DMPK: 0.419 and 0.3493 and 0.1665
  tpm DRP2: -0.6676 and -1.3 and -0.607
  tpm ECM2: -0.5146 (2×) and 0.2506
  tpm FAM186B: -0.5789 and -0.1828 and -0.4779
  tpm FER1L6: -0.0478 and 0.008832 and -0.09563
  tpm FLT1: 0.161 and -0.1482 and -0.7906
  tpm FSD2: -0.9288 and -1.378 and -0.8049
  tpm FTH1: 1.05 and 1.051 and 1.128
  tpm FXYD3: -0.3733 and -0.2655 and -0.4971
  tpm GALNT12: 0.1641 and 0.2605 and 0.1597
  tpm GRAMD2A: -1.217 and -0.8334 and -0.5772
  tpm HID1: 1.101 and 0.7299 and 0.9267
  tpm HPSE2: -0.4281 and -0.1645 and -0.06191
  tpm IDO1: -0.05198 and -0.1635 and 0.07694
  tpm IGDCC4: 1.025 and 0.5822 and 0.3088
  tpm INHBA: -0.4046 and -0.5562 and -0.8145
  tpm INHBB: 0.08661 and -0.02356 and -0.07924
  tpm KIAA1755: -0.4724 and -0.3852 and -0.1722
  tpm KLHDC7B: 1.013 and 1.073 and 1.158
  tpm LOC105374299: 0.8275 and 1.276 and 1.486
  tpm LOC107987158: 0.1622 and -0.3121 and -1.443
  tpm LONRF2: 0.1017 (2×) and -0.7266
  tpm MAP7D3: 0.1661 and 0.1563 and -0.001507
  tpm MEF2C: 0.3074 (2×) and -0.8164
  tpm MEOX1: -0.388 and -0.5893 and -0.8851
  tpm MINAR1: 1.487 and 0.4714 and 0.64
  tpm MSMP: -0.1946 and -0.01672 and -0.03466
  tpm MUC4: 0.5142 and 1.164 and 1.212
  tpm MYH7B: -0.4262 and -0.2568 and 0.1543
  tpm PDGFRL: 0.618 and 0.4346 and 0.4486
  tpm PLEKHA7: -0.3096 and -0.2197 and -0.3271
  tpm PLEKHG1: -0.07347 and -0.05792 and -0.2
  tpm PRRT4: 0.01578 and 0.2412 and 0.04865
  tpm RORC: 0.6069 and 0.189 and 1.342
  tpm RP1L1: -0.07855 and -0.3562 and -1.072
  tpm RPP25: 0.2387 and 0.2331 and 0.2609
  tpm SAT1: 0.7632 and 0.7179 and 0.7837
  tpm SAXO2: -1.3 and 0.5697 and 0.468
  tpm SERPINA5: 0.2889 and 0.09986 and -0.2457
  tpm SERPINB3: -1.23 and -0.7997 and -0.9984
  tpm SERPINF2: 0.3503 and 0.1655 and 0.444
  tpm SGK3: -0.2978 and 0.6129 and 0.5003
  tpm SLC22A4: -0.6184 and -1.014
  tpm SLFN11: -0.5865 and -0.5524 (2×)
  tpm SRPX: 0.5121 and 0.498 and 0.6168
  tpm STARD4: 0.9661 and 0.7143
  tpm SVEP1: -0.8267 and -1.268 and -1.176
  tpm TBX2: 0.468 and 0.2574 and 0.908
  tpm TCN1: 0.4136 and 0.08826 and 0.5034
  tpm TNF: 0.3176 and 0.1804
  tpm TNFRSF6B: -0.5827 and 0.1186 and -0.2431
  tpm TNFSF14: 1.093 and 1.162 and 1.079
  tpm TRIM31: -0.6801 and -0.02951 and -0.5211
  tpm UGT2B7: -0.4066 and -0.3815 and -0.4168
  tpm XKRX: -0.4846 and 0.05471 and 0.3317
  tpm ZNF28: 0.116 and -1.142 and -0.2155
  tpm ZNF302: -0.4799 and 0.1803 and -0.08669
PC-3-KQ cells
  AADACL3 Change (KQ-Control vs KQ-NTZ): DOWN
  AADACL3 logFC (KQ-Control vs KQ-NTZ): -1.5511
  ABCA1 Change (KQ-Control vs KQ-NTZ): DOWN
  ABCA1 logFC (KQ-Control vs KQ-NTZ): -1.1023
  ABCB4 Change (KQ-Control vs KQ-NTZ): DOWN
  ABCB4 logFC (KQ-Control vs KQ-NTZ): -1.0876
  ADORA1 Change (KQ-Control vs KQ-NTZ): DOWN
  ADORA1 logFC (KQ-Control vs KQ-NTZ): -0.6297
  ANKRD36C Change (KQ-Control vs KQ-NTZ): DOWN
  ANKRD36C logFC (KQ-Control vs KQ-NTZ): -0.823
  ANKRD63 Change (KQ-Control vs KQ-NTZ): DOWN
  ANKRD63 logFC (KQ-Control vs KQ-NTZ): -0.8191
  ANXA8L1 Change (KQ-Control vs KQ-NTZ): DOWN
  ANXA8L1 logFC (KQ-Control vs KQ-NTZ): -1.2337
  APLN Change (KQ-Control vs KQ-NTZ): DOWN
  APLN logFC (KQ-Control vs KQ-NTZ): -0.8669
  ARL10 Change (KQ-Control vs KQ-NTZ): DOWN
  ARL10 logFC (KQ-Control vs KQ-NTZ): -0.6715
  ARX logFC (KQ-Control vs KQ-NTZ): 0.8688
  ASB2 Change (KQ-Control vs KQ-NTZ): DOWN
  ASB2 logFC (KQ-Control vs KQ-NTZ): -1.5518
  ASRGL1 Change (KQ-Control vs KQ-NTZ): DOWN
  ASRGL1 logFC (KQ-Control vs KQ-NTZ): -0.6209
